{"source": "paper PMC5862592", "about": "“CDK8/19 inhibition induces premature G1/S transition and ATR-dependent cell death in prostate cancer cells” (Oncotarget, 2018)", "assay_in_all_cases": "biochemical", "design_in_all_cases": "KINOMEscan active site-directed competition binding assay (DiscoveRx), 456 kinases, per cent of control at 300 nM", "conditions_in_all_cases": "read-out: Percent of Control (%)", "key": {"[1]": {"target": "T1, ABL1(H396P)-phosphorylated (Homo sapiens, UniProt P00519, H396P)", "T1 construct": "phosphorylated", "procedure,_shortened": "(§1)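 Compounds at 300 nmol/L screened against 456 kinases by KINOMEscan, a competition binding assay measuring displacement at the kinase active site.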"}, "[2]": {"target": "T2, ABL1(M351T)-phosphorylated (Homo sapiens, UniProt P00519, M351T)", "T2 construct": "phosphorylated", "procedure,_shortened": "as §1"}, "BMPR1B": {"target": "BMPR1B (Homo sapiens, UniProt O00238)", "procedure,_shortened": "as §1"}, "CAMK1G": {"target": "CAMK1G (Homo sapiens, UniProt Q96NX5)", "sequence (Q96NX5 whole entry)": "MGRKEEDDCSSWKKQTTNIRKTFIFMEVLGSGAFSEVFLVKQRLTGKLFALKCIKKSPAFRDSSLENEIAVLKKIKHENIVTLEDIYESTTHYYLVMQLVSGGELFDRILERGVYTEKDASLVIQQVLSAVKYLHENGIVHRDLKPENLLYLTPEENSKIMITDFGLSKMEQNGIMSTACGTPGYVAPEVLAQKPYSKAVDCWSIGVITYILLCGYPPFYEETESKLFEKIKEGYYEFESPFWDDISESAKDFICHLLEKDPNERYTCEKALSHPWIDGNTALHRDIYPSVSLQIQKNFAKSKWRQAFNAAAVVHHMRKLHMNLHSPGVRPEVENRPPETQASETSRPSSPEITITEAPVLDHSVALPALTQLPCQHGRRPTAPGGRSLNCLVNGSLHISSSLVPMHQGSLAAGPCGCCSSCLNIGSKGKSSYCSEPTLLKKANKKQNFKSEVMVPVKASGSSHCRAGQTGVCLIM", "procedure,_shortened": "as §1"}, "CDK4-cyclinD3": {"target": "T3, CDK4-cyclinD3 (Homo sapiens, UniProt P11802)", "T3 construct": "cyclinD3", "procedure,_shortened": "as §1"}, "ERK3": {"target": "T4, ERK3 (Homo sapiens, UniProt Q16659)", "T4 construct": "gene MAPK6", "procedure,_shortened": "as §1"}, "FGFR4": {"target": "FGFR4 (Homo sapiens, UniProt P22455)", "sequence (P22455 whole entry)": "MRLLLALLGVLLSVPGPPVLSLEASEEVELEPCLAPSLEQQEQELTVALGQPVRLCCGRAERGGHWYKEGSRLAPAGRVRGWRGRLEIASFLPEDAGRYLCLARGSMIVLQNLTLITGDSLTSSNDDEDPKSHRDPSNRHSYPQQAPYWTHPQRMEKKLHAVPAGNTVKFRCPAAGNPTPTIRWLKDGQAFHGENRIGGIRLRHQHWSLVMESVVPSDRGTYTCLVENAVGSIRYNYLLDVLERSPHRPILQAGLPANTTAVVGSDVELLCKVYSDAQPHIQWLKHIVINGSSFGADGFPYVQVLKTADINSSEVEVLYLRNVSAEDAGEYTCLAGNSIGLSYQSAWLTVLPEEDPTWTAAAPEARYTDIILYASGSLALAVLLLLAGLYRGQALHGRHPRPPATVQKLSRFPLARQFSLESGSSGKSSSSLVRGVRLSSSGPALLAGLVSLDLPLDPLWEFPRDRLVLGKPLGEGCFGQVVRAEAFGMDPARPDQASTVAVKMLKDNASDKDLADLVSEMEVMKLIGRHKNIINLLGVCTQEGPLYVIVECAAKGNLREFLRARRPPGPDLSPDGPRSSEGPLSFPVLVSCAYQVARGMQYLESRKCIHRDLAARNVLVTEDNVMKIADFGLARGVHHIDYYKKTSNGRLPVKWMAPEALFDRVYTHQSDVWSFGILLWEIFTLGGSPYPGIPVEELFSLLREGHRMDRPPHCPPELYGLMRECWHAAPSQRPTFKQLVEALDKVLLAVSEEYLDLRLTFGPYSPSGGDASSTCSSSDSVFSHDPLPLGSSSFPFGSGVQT", "procedure,_shortened": "as §1"}, "FLT3(ITD)": {"target": "FLT3(ITD) (Homo sapiens, UniProt P36888, ITD)", "procedure,_shortened": "as §1"}, "FYN": {"target": "FYN (Homo sapiens, UniProt P06241)", "procedure,_shortened": "as §1"}, "HUNK": {"target": "HUNK (Homo sapiens, UniProt P57058)", "procedure,_shortened": "as §1"}, "IRAK3": {"target": "IRAK3 (Homo sapiens, UniProt Q9Y616)", "procedure,_shortened": "as §1"}, "MAP4K4": {"target": "MAP4K4 (Homo sapiens, UniProt O95819)", "procedure,_shortened": "as §1"}, "MAP4K5": {"target": "MAP4K5 (Homo sapiens, UniProt Q9Y4K4)", "sequence (Q9Y4K4 whole entry)": "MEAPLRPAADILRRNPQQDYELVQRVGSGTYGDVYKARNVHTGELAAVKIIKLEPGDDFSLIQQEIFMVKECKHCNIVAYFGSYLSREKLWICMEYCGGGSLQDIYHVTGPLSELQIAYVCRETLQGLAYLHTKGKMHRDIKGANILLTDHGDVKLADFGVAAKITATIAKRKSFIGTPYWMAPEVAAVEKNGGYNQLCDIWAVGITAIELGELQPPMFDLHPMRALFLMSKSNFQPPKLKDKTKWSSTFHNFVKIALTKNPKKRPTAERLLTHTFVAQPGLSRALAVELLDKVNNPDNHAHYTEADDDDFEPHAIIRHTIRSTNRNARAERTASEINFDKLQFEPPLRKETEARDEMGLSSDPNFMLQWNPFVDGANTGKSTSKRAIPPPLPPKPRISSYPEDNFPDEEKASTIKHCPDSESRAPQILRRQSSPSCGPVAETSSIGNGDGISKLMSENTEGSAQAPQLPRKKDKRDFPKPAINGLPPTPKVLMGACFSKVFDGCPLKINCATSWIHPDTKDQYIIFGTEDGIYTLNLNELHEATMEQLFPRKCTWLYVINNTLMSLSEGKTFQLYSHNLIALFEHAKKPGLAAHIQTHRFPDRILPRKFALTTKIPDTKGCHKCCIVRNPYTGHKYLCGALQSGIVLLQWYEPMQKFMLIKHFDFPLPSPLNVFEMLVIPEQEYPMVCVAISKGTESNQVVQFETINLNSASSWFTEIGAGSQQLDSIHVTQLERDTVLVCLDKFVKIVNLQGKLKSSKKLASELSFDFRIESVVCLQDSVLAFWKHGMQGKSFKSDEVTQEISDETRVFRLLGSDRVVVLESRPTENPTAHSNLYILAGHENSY", "procedure,_shortened": "as §1"}, "PDGFRB": {"target": "PDGFRB (Homo sapiens, UniProt P09619)", "sequence (P09619 whole entry)": "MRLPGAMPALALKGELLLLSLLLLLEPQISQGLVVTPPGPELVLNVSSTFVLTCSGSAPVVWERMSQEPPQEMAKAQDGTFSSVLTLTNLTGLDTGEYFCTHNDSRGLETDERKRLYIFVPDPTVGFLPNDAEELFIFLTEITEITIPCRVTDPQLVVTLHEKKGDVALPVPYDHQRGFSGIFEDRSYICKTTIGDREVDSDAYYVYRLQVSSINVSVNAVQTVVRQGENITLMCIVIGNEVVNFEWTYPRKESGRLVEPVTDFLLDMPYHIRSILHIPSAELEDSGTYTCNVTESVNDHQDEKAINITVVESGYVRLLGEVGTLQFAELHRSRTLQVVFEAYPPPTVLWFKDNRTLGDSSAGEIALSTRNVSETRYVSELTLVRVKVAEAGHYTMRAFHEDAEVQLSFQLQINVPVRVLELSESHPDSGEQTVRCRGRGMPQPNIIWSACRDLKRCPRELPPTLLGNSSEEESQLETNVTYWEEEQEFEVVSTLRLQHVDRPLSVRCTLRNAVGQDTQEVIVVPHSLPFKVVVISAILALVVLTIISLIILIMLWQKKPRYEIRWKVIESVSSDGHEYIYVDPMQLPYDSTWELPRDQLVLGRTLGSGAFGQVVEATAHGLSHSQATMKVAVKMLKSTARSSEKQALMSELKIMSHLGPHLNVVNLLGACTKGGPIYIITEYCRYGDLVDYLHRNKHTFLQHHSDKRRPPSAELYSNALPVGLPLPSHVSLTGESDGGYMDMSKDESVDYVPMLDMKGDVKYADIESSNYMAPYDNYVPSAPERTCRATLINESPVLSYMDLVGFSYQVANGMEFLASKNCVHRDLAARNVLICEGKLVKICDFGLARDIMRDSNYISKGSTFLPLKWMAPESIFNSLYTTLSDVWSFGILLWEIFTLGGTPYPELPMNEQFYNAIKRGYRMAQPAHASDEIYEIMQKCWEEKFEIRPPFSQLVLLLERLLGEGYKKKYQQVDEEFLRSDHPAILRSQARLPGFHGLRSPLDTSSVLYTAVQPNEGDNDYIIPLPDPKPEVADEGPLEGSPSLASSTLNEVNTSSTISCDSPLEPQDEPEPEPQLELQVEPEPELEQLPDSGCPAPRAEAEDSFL", "procedure,_shortened": "as §1"}, "PYK2": {"target": "T5, PYK2 (Homo sapiens, UniProt Q14289)", "T5 construct": "gene PTK2B", "procedure,_shortened": "as §1"}, "RET(M918T)": {"target": "RET(M918T) (Homo sapiens, UniProt P07949, M918T)", "sequence (P07949 whole entry M918T)": "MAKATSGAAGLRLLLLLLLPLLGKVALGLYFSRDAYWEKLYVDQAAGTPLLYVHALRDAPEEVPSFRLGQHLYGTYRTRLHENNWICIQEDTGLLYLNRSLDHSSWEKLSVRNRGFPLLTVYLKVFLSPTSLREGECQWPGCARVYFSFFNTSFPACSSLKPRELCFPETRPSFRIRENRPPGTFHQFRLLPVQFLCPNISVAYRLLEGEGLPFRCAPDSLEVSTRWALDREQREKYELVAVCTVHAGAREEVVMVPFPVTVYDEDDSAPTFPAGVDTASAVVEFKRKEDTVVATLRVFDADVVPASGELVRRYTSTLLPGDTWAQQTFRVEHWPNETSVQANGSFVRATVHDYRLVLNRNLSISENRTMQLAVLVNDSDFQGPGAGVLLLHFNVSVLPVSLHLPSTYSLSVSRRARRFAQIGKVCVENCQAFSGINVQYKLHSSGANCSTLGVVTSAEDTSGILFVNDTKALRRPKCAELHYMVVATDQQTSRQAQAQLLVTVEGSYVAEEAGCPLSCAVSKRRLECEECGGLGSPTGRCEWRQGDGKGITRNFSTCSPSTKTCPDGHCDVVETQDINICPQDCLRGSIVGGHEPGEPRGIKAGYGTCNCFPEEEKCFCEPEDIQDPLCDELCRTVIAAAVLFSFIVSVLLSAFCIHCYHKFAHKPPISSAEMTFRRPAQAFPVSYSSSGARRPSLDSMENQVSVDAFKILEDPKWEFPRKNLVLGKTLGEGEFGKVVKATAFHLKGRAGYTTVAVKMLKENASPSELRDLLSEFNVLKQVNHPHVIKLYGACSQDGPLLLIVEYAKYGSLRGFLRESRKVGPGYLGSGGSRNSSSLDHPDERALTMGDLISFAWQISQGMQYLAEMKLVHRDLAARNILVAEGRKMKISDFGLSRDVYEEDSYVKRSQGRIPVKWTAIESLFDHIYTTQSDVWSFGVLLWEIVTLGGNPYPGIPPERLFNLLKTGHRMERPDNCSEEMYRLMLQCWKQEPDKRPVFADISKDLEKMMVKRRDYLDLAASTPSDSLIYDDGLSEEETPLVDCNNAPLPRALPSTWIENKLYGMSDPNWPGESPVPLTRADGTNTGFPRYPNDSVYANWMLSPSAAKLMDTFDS", "procedure,_shortened": "as §1"}, "RIOK1": {"target": "RIOK1 (Homo sapiens, UniProt Q9BRS2)", "sequence (Q9BRS2 whole entry)": "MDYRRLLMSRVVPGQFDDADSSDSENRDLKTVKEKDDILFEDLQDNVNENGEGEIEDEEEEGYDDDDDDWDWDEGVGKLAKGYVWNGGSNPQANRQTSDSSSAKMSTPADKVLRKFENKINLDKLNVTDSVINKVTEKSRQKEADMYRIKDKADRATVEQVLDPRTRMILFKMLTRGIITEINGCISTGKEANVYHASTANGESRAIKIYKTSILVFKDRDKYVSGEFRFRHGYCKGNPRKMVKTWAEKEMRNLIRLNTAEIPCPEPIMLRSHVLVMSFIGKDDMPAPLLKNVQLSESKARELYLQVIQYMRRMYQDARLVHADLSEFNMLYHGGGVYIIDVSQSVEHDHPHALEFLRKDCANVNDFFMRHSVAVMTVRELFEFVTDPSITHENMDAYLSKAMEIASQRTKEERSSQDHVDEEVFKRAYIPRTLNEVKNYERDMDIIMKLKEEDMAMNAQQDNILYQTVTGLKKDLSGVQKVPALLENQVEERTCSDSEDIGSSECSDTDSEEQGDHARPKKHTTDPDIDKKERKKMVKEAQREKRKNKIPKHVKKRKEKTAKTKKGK", "procedure,_shortened": "as §1"}, "[3]": {"target": "T6, RSK1(Kin.Dom.2-C-terminal) (Homo sapiens, UniProt Q15418)", "T6 construct": "gene RPS6KA1; Kin.Dom.2-C-terminal", "procedure,_shortened": "as §1"}, "SBK1": {"target": "SBK1 (Homo sapiens, UniProt Q52WX2)", "procedure,_shortened": "as §1"}, "SgK110": {"target": "T7, SgK110 (Homo sapiens, UniProt P0C264)", "T7 construct": "gene SBK3", "procedure,_shortened": "as §1"}, "ZAK": {"target": "T8, ZAK (Homo sapiens, UniProt Q9NYL2)", "T8 construct": "gene MAP3K20", "procedure,_shortened": "as §1"}}, "note": "Read-outs that look alike come from different tables or passages of the source.", "data": [{"smiles": "O=C(/C=C/c1cnccc1-c1ccc(F)cc1)Nc1ccc(CCc2nnco2)cc1", "note": "[T-418, (2E)-3-(4-(4-fluorophenyl)pyridin-3-yl)-N-(4-(2-(1,3,4-oxadiazol-2-yl)ethyl)phenyl)acrylamide]", "values": [{"measurement": "remaining binding at 0.3 µM", "setting": "[1]; sheet T-418", "result": 96, "unit": "%"}, {"measurement": "remaining binding at 0.3 µM", "setting": "[2]; sheet T-418", "result": 100, "unit": "%"}, {"measurement": "remaining binding at 0.3 µM", "setting": "BMPR1B; sheet T-418", "result": 100, "unit": "%"}, {"measurement": "remaining binding at 0.3 µM", "setting": "CAMK1G; sheet T-418", "result": 100, "unit": "%"}, {"measurement": "remaining binding at 0.3 µM", "setting": "CDK4-cyclinD3; sheet T-418", "result": 95, "unit": "%"}, {"measurement": "remaining binding at 0.3 µM", "setting": "ERK3; sheet T-418", "result": 68, "unit": "%"}, {"measurement": "remaining binding at 0.3 µM", "setting": "FGFR4; sheet T-418", "result": 80, "unit": "%"}, {"measurement": "remaining binding at 0.3 µM", "setting": "FLT3(ITD); sheet T-418", "result": 100, "unit": "%"}, {"measurement": "remaining binding at 0.3 µM", "setting": "FYN; sheet T-418", "result": 100, "unit": "%"}, {"measurement": "remaining binding at 0.3 µM", "setting": "HUNK; sheet T-418", "result": 100, "unit": "%"}, {"measurement": "remaining binding at 0.3 µM", "setting": "IRAK3; sheet T-418", "result": 100, "unit": "%"}, {"measurement": "remaining binding at 0.3 µM", "setting": "MAP4K4; sheet T-418", "result": 89, "unit": "%"}, {"measurement": "remaining binding at 0.3 µM", "setting": "MAP4K5; sheet T-418", "result": 85, "unit": "%"}, {"measurement": "remaining binding at 0.3 µM", "setting": "PDGFRB; sheet T-418", "result": 100, "unit": "%"}, {"measurement": "remaining binding at 0.3 µM", "setting": "PYK2; sheet T-418", "result": 88, "unit": "%"}, {"measurement": "remaining binding at 0.3 µM", "setting": "RET(M918T); sheet T-418", "result": 98, "unit": "%"}, {"measurement": "remaining binding at 0.3 µM", "setting": "RIOK1; sheet T-418", "result": 97, "unit": "%"}, {"measurement": "remaining binding at 0.3 µM", "setting": "[3]; sheet T-418", "result": 100, "unit": "%"}, {"measurement": "remaining binding at 0.3 µM", "setting": "SBK1; sheet T-418", "result": 73, "unit": "%"}, {"measurement": "remaining binding at 0.3 µM", "setting": "SgK110; sheet T-418", "result": 73, "unit": "%"}, {"measurement": "remaining binding at 0.3 µM", "setting": "ZAK; sheet T-418", "result": 73, "unit": "%"}]}, {"smiles": "Cc1ncccc1Oc1sc(C(N)=O)c2c1-c1c(cnn1C)CC2", "note": "[T-474, 1-methyl-8-((2-methylpyridin-3-yl)oxy)-4,5-dihydro-1H-thieno[3,4-g]indazole-6-carboxamide]", "values": [{"measurement": "remaining binding at 0.3 µM", "setting": "[1]", "result": 100, "unit": "%"}, {"measurement": "remaining binding at 0.3 µM", "setting": "[2]", "result": 100, "unit": "%"}, {"measurement": "remaining binding at 0.3 µM", "setting": "BMPR1B", "result": 100, "unit": "%"}, {"measurement": "remaining binding at 0.3 µM", "setting": "CAMK1G", "result": 100, "unit": "%"}, {"measurement": "remaining binding at 0.3 µM", "setting": "CDK4-cyclinD3", "result": 98, "unit": "%"}, {"measurement": "remaining binding at 0.3 µM", "setting": "ERK3", "result": 78, "unit": "%"}, {"measurement": "remaining binding at 0.3 µM", "setting": "FGFR4", "result": 97, "unit": "%"}, {"measurement": "remaining binding at 0.3 µM", "setting": "FLT3(ITD)", "result": 100, "unit": "%"}, {"measurement": "remaining binding at 0.3 µM", "setting": "FYN", "result": 100, "unit": "%"}, {"measurement": "remaining binding at 0.3 µM", "setting": "HUNK", "result": 100, "unit": "%"}, {"measurement": "remaining binding at 0.3 µM", "setting": "IRAK3", "result": 96, "unit": "%"}, {"measurement": "remaining binding at 0.3 µM", "setting": "MAP4K4", "result": 83, "unit": "%"}, {"measurement": "remaining binding at 0.3 µM", "setting": "MAP4K5", "result": 70, "unit": "%"}, {"measurement": "remaining binding at 0.3 µM", "setting": "PDGFRB", "result": 100, "unit": "%"}, {"measurement": "remaining binding at 0.3 µM", "setting": "PYK2", "result": 100, "unit": "%"}, {"measurement": "remaining binding at 0.3 µM", "setting": "RET(M918T)", "result": 100, "unit": "%"}, {"measurement": "remaining binding at 0.3 µM", "setting": "RIOK1", "result": 98, "unit": "%"}, {"measurement": "remaining binding at 0.3 µM", "setting": "[3]", "result": 100, "unit": "%"}, {"measurement": "remaining binding at 0.3 µM", "setting": "SBK1", "result": 91, "unit": "%"}, {"measurement": "remaining binding at 0.3 µM", "setting": "SgK110", "result": 57, "unit": "%"}, {"measurement": "remaining binding at 0.3 µM", "setting": "ZAK", "result": 74, "unit": "%"}]}]}
